As a reminder, the Ki is a dissociation constant, usually derived from enzyme kinetics or from competition with a known ligand.

The target of one test is T1, Thermolysin (Bacillus thermoproteolyticus, UniProt P00800).
T1 sequence (P00800 whole entry): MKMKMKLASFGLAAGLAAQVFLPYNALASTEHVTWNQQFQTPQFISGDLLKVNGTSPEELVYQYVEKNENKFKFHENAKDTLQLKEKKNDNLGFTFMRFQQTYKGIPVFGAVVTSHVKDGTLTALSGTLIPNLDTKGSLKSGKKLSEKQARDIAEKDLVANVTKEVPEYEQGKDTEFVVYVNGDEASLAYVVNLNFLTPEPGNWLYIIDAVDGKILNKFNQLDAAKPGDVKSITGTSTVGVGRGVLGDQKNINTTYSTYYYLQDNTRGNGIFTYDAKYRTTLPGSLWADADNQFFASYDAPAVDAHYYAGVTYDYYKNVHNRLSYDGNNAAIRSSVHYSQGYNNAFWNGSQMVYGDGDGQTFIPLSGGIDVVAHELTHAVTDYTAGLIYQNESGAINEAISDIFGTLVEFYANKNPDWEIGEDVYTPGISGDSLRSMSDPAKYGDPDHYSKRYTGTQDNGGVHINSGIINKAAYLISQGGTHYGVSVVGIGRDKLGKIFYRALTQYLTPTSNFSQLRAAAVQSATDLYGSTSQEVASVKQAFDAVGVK
Put plainly: Inhibitory activity against thermolysin.
The molecule `CNC(=O)[C@@H](Cc1ccccc1)CN(O)C(C)=O` came in with a Ki of 3950 µM.
The same measure, in the same setting: in the case of `CNC(=O)[C@@H](Cc1ccccc1)CN(O)C=O` it was 1.66 µM; in that of `COC(=O)[C@@H](CC(C)C)CN(O)C=O`, 22.5 µM; in that of `CCC(=O)N(O)C[C@H](Cc1ccccc1)C(=O)NC`, 7500 µM.
The same measure, in the same setting: under `CNC(=O)[C@H](Cc1ccccc1)CN(O)C=O` stands 68.2 µM; under `COC(=O)[C@@H](CC(C)C)N(O)C=O`, 44 µM.

In a further test the target is T1, Thermolysin. Put plainly: Inhibitory activity against thermolysin; No inhibitory activity was observed up to concentration of 20 mM.
For `CCC(=O)N(O)C[C@@H](Cc1ccccc1)C(=O)NC`, the Ki result was “No inhibition”.
Same read-out and setting: in the case of `CNC(=O)[C@H](Cc1ccccc1)CN(O)C(C)=O` it was “No inhibition”.

Values taken from ChEMBL document CHEMBL1130707, “Inhibition stereochemistry of hydroxamate inhibitors for thermolysin” (Bioorg Med Chem Lett, 1998).
